Measurements published in patent US20250248993A1, “CAMPTOTHECIN DERIVATIVES THAT BIND TO DDX5 PROTEIN AND PRODRUGS THEREOF” (priority 2022, published 2025).
Like-named read-outs stand apart in the source and are kept apart here.

Tests used:
[1] = dose more than 10 times higher than a clinically applicable dose; cited from earlier work
[2] = system: various cancer lines; conditions: cited from earlier work
[3] = system: survivin, cIAP2, Mcl-1, and XIAP; test: Western blot, expression inhibition of anti-apoptotic proteins in FaDu cell line; format: cell-based; conditions: FaDu, 0, 10, 100 nM, 24 hours
[4] = Lactone to carboxylate form conversion at pH 7.4; format: physicochemical; conditions: pH 7.4, 37° C.
Protocol: Subsequently, it was centrifuged under conditions of 4° C., 2 minutes, and 13000 RCF, and a supernatant was used as a sample.
The column used was a Cortecs C18 2.7 μm, 4.6×50 mm column, and analysis was conducted under the following conditions: 1) 20 min: 5% B, 2) sample injection, 3) 2 min: 5% B, 4) 10 min: 5% B→50% B, and 5) 1 min: 50% B.
To measure changes over time, a sample chamber was maintained at 37° C. and a sample was set to be injected at each measurement time. The measurement time was set to 0, 20, 40, 60, 90, 120, 180, 240, 300, 360, 480, 600, and 720 minutes.
The content of each of lactone and carboxylate was calculated from the peak area thereof. Since the absorption coefficients of lactone and carboxylate are different, the lactone area was obtained by multiplying the carboxylate area by the equation below.

[5] = in vivo; conditions: NOD SCID, mouse, 1 mg/kg, Plasma Concentration
[6] = mouse, in vivo
[7] = target: DDX5 (Homo sapiens, UniProt P17844); test: Western blot, DDX5 degradation in FaDu and A549 cell lines; format: cell-based; set-up: endogenous in cells; host or cells: FaDu, A549; conditions: FaDu and A549, 0, 10, 100 nM
Sequence of DDX5 (P17844 whole entry): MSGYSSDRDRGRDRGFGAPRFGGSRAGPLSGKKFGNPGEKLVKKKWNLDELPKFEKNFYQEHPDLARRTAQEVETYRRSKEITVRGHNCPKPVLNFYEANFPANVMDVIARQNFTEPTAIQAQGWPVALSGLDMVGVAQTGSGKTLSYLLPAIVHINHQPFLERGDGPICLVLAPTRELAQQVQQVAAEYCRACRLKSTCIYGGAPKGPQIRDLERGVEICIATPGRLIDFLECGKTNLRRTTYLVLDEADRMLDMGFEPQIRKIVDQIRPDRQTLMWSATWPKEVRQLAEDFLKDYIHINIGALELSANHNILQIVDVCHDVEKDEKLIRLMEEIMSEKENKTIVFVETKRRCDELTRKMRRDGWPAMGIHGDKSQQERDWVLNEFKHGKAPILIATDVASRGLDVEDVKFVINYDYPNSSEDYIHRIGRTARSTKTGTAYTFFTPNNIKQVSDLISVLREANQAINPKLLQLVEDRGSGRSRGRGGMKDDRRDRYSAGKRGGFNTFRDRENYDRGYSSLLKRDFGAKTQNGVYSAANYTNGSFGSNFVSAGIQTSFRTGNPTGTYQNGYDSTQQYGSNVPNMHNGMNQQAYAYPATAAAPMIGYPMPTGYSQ

[8] = system: FaDu cell line; test: Cell viability assay (CellTiter-Glo), FaDu cell line; format: cell-based; conditions: FaDu not expressing ABCG2, 3 days
Protocol: After 24 hours, the cells were treated with 100 μL of each drug at nine different concentrations (⅕ serial dilutions from 1000 nM). […] Here, a control (drug concentration: 0) that was not treated with a drug was also prepared. The cells were cultured (37° C., 5% CO2) for 3 or 6 days. 100 μL of the CellTiter-Glo reagent (using the CellTiter-Glo® Luminescent Cell Viability Assay kit (Promega, G7571)) was added to each well and pipetted. After incubating at room temperature (RT) for 10 minutes, luminescence was measured.

CC[C@@]1(O)C(=O)OCc2c1cc1n(c2=O)Cc2c-1nc1ccccc1c2CCNC(C)C [CKD-602]
adverse drug reactions [1]: no adverse drug reactions, except an increase in gastric juice secretion

CCc1c2c(nc3ccc(O)cc13)-c1cc3c(c(=O)n1C2)COC(=O)[C@]3(O)CC [SN-38]
IC50 ([2]; several cell lines): nanomolar range

CC[C@@]1(O)C(=O)OCc2c1cc1n(c2=O)Cc2c-1nc1cc(F)c(C)c3c1c2[C@@H](N)CC3 [Exatecan, reference compound]
expression of anti-apoptotic proteins (survivin, cIAP2, Mcl-1, XIAP) [3]: strongly inhibit the expression of an anti-apoptotic protein

CC[C@@]1(O)C(=O)OCc2c1cc1n(c2=O)Cc2c-1nc1cc3c(c4c1c2[C@@H](NC(=O)[C@@H](C)O)CC4)OCO3 [PBX-7016]
conversion from lactone form to carboxylate form [4]: more rapidly and at a higher rate than other reference compounds | concentration at 0.167 h ([5]; ip, Mean): 164 ng/mL | concentration at 1 h ([5]; ip, Mean): 16.1 ng/mL | concentration at 0.167 h ([5]; ip, individual mice): 158 ng/mL | concentration at 0.167 h ([5]; iv, Mean): 59.3 ng/mL | concentration at 1 h ([5]; iv, Mean): 6.9 ng/mL | concentration at 0.167 h ([5]; iv, individual mice): 76.2 ng/mL | clearance from the blood [6]: cleared from the blood very quickly | expression of anti-apoptotic proteins (survivin, cIAP2, Mcl-1, XIAP) [3]: decreased as the concentration increased | DDX5 degradation / inhibition [7]: inhibited DDX5 in a concentration-dependent manner

CC[C@@]1(O)C(=O)OCc2c1cc1n(c2=O)Cc2c-1nc1cc(F)c(C)c3c1c2[C@@H](NC(=O)CO)CC3 [Dxd]
cytotoxicity / activity relative to SN-38 [2]: approximately 10 times

CC[C@@]1(O)C(=O)OCc2c1cc1n(c2=O)Cc2c-1nc1cc3c(c4c1c2[C@@H](NC(=O)CO)CC4)OCO3 [PBX-7014]
expression of anti-apoptotic proteins (survivin, cIAP2, Mcl-1, XIAP) [3]: decreased as the concentration increased

CC[C@@]1(O)C(=O)OCc2c1cc1n(c2=O)Cc2c-1nc1cc3c(c4c1c2[C@@H](NC(=O)[C@@H](O)C1CC1)CC4)OCO3 [PBX-7024]
apoptotic efficacy (cell viability) [8]: potent apoptotic efficacy

CC[C@@]1(O)C(=O)OCc2c1cc1n(c2=O)Cc2c-1nc1cc3c(c4c1c2[C@@H](N)CC4)OCO3 (single isomer, unassigned) [PBX-7011]
expression of anti-apoptotic proteins (survivin, cIAP2, Mcl-1, XIAP) [3]: decreased as the concentration increased

CC[C@@]1(O)C(=O)OCc2c1cc1n(c2=O)Cc2cc3cc4c(cc3nc2-1)OCO4 [FL118, reference compound]
expression of anti-apoptotic proteins (survivin, cIAP2, Mcl-1, XIAP) [3]: strongly suppresses the expression of an anti-apoptotic protein | DDX5 degradation / inhibition [7]: superior to other substances | IC50 ([2]; majority of 140 cell lines originating from various cancer types): < 100 nM
